Reference: patent publication US20230212549A1, “COMPOUNDS COMPRISING A […] LIGAND AND USE THEREOF” (priority 2021, published 2023)
Numbered stars: 1 amine (or outer) side, 2 acyl side, 3 side chain; on linkers, the order of the positions; unused ones are H or OH. Bridge positions count the residues as written; N and C are the ends. Square brackets hold non-standard residues; d marks the D form. Peptide text beside a SMILES is read from it. * marks the point of attachment. X17 = NC(=O)[C@H](CCCCNC(=O)CN1CCN(CC(=O)O)CCN(CC(=O)O)CCN(CC(=O)O)CC1)NC(=O)CCC(=O)NCCCOCCOCCOCCCN*; TBMB(SCH2CH2NH-DOTA) = O=C(O)CN1CCN(CC(=O)O)CCN(CC(=O)NCCSCc2cc(C[*:1])cc(C[*:2])c2)CCN(CC(=O)O)CC1; X13 = O=C(O)CN1CCN(CC(=O)O)CCN(CC(=O)N2CCN(Cc3cc(C[*:1])cc(C[*:2])c3)CC2)CCN(CC(=O)O)CC1; X18 = NCCNCC(CNCCN)C(=O)N[C@@H](CCC(=O)O)C(=O)NCCCOCCOCCOCCCN*; 1Nal = N[C@@H](Cc1cccc2ccccc12)C(=O)O; mXylylene = c1cc(C[*:1])cc(C[*:2])c1; Pentanesulfonyl = CCCCCS(=O)(=O)*; Suc = O=C(CCC(=O)[*:2])[*:1]; Nle = CCCC[C@H](N)C(=O)O; Hexanoyl = CCCCCC(=O)*; CO = O=C([*:1])[*:2]; Sar = CNCC(=O)O; NHBu = CCCCN*

Assays:
[1] = biological target: T1, FAP-expressing human WI-38 fibroblasts (Homo sapiens, UniProt Q12884); assay: Competitive FACS binding assay
T1 construct: FAP-expressing human WI-38 fibroblasts (ECACC) were cultured in EMEM; host or cells: WI-38 human fibroblasts
T1 sequence (Q12884 whole entry): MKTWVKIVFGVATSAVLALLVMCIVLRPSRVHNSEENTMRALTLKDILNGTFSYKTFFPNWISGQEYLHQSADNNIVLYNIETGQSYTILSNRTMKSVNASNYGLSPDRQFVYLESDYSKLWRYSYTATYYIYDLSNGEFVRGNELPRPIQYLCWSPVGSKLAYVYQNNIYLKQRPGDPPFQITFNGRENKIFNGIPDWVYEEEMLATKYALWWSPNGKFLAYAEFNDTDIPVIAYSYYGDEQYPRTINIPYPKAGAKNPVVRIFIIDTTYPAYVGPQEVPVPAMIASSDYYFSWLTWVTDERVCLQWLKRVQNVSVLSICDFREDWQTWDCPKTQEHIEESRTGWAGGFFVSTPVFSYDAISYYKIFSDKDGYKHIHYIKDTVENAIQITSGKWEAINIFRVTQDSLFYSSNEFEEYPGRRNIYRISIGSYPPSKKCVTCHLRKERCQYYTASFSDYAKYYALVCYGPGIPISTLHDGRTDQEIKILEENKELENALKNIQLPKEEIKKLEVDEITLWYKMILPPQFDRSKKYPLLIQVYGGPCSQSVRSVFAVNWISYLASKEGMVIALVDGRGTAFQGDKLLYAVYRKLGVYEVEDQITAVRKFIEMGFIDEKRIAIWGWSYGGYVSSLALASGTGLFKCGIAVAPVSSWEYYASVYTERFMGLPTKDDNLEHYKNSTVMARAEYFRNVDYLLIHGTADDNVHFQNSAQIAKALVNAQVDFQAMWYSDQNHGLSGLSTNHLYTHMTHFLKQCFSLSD
Experimental: Cells were analyzed in an Attune NxT flow cytometer. […] […].
Cells were analyzed in an Attune NxT flow cytometer. […]

[2] = biological target: T2, Human recombinant FAP (Homo sapiens, UniProt Q12884); assay: Surface plasmon resonance (Biacore) assay; assay type: binding; conditions: for pKD Category: Biacore assay
T2 sequence (Q12884 whole entry): as above

[3] = biological target: T2, Human recombinant FAP; assay: FRET-based FAP protease activity assay; assay type: biochemical; parameters: purchased R&D systems 3715-SE; conditions: pIC50 Category (Activity), 37° C.
[4] = FRET-based FAP protease activity assay, recombinant human FAP

| Structure (SMILES) | IC50 [1] [nM] | Kd [2] [nM] | IC50 ([3]; FRET-peptide substrate) [nM] | IC50 [3, 4] [nM] | pKD Category [2] |
| --- | --- | --- | --- | --- | --- |
| CCCC[C@H](NC(=O)CCC(=O)NCCCOCCOCCOCCCNC(=O)[C@H](CCC(=O)O)NC(=O)C(CNCCN)CNCCN)C(=O)N[C@H]1CSCc2cccc(c2)CSC[C@@H](C(=O)O)NC(=O)[C@H](Cc2ccccc2)NC(=O)[C@H](CCC(=O)O)NC(=O)[C@H]([C@@H](C)O)NC(=O)[C@@H]2CCCN2C(=O)[C@@H]2CCCN2C1=O [3BP-4222, N4Ac-Glu-Ttds-Nle-[Cys-(3MeBn)-Pro-Pro-Thr-Glu-Phe-Cys]-OH] ({X18-Suc}-[Nle]CPPTEFC-OH; linker 2-8 via mXylylene) | 10 to 79.4 | < 10 | 10 to 79.4 | – | – |
| CCCCCC(=O)N[C@H]1CSCc2cc(CSCCNC(=O)CN3CCN(CC(=O)O)CCN(CC(=O)O)CCN(CC(=O)O)CC3)cc(c2)CSC[C@@H](C(=O)O)NC(=O)[C@H](Cc2ccccc2C(F)(F)F)NC(=O)[C@H](CCC(N)=O)NC(=O)[C@H]([C@@H](C)O)NC(=O)[C@@H]2CCCN2C(=O)[C@@H]2CCCN2C1=O [3BP-3680, Hex-[Cys(tMeBn(DOTA-AET))-Pro-Pro-Thr-Gln-Otf-Cys]-OH] | < 10 | < 10 | – | < 10 | – |
| CCCCCC(=O)N[C@H]1CSCc2cc(CSCCNC(=O)COCCOCCNC(=O)CCC(C(=O)O)N3CCN(CC(=O)O)CCN(CC(=O)O)CC3)cc(c2)CSC[C@@H](C(=O)O)NC(=O)[C@H](Cc2ccccc2)NC(=O)[C@H](CCC(N)=O)NC(=O)[C@H]([C@@H](C)O)NC(=O)[C@@H]2CCCN2C(=O)[C@@H]2CCCN2C1=O (stereo partly drawn) [3BP-4251, Hex-[Cys-(tMeBn(NODAGA-O2Oc-AET))-Pro-Pro-Thr-Gln-Phe-Cys]-OH] | < 10 | < 10 | < 10 | – | – |
| CCCCCC(=O)N[C@H]1CSCc2cc(CSCCNC(=O)CN3CCN(CC(=O)O)CCN(CC(=O)O)CCN(CC(=O)O)CC3)cc(c2)CSC[C@@H](C(=O)O)NC(=O)[C@H](Cc2cccc3ccccc23)NC(=O)[C@H](CCC(N)=O)NC(=O)[C@H]([C@@H](C)O)NC(=O)[C@@H]2CCCN2C(=O)[C@@H]2CCCN2C1=O [3BP-3650, Hex-[Cys(tMeBn(DOTA-AET))-Pro-Pro-Thr-Gln-1Ni-Cys]-OH] (Hexanoyl-CPPTQ[1Nal]C-OH; linker 1-7 via TBMB(SCH2CH2NH-DOTA)) | < 10 | < 10 | – | < 10 | – |
| CCCCNC(=O)N[C@H]1CSCc2cc(CSCCNC(=O)CN3CCN(CC(=O)O)CCN(CC(=O)O)CCN(CC(=O)O)CC3)cc(c2)CSC[C@@H](C(=O)O)NC(=O)[C@H](Cc2ccccc2)NC(=O)[C@H](CCC(N)=O)NC(=O)[C@H]([C@@H](C)O)NC(=O)[C@@H]2CCCN2C(=O)CN(C)C1=O [3BP-4607, nBu-CAyl-[Cys(tMeBn(DOTA-AET))-Nmg-Pro-Thr-Gln-Phe-Cys]-OH] ({NHBu-CO}-C[Sar]PTQFC-OH; linker 1-7 via TBMB(SCH2CH2NH-DOTA)) | < 10 | < 10 | < 10 | – | – |
| CCCCCC(=O)N[C@H]1CSCc2cc(CSCCNC(=O)CN3CCN(CC(=O)O)CCN(CC(=O)O)CCN(CC(=O)O)CC3)cc(c2)CSC[C@@H](C(N)=O)NC(=O)[C@H](Cc2ccccc2)NC(=O)[C@H](CCC(=O)O)NC(=O)[C@H]([C@@H](C)O)NC(=O)[C@@H]2CCCN2C(=O)[C@@H]2CCCN2C1=O [3BP-3653, Hex-[Cys(tMeBn(DOTA-AET))-Pro-Pro-Thr-Glu-Phe-Cys]-NH2] (Hexanoyl-CPPTEFC-NH2; linker 1-7 via TBMB(SCH2CH2NH-DOTA)) | < 10 | < 10 | – | < 10 | – |
| CCCCCC(=O)N[C@H]1CSCc2cc(CSCCNC(=O)CN3CCN(CC(=O)O)CCN(CC(=O)O)CCN(CC(=O)O)CC3)cc(c2)CSC[C@@H](C(N)=O)NC(=O)[C@H](Cc2ccccc2)NC(=O)[C@H](CCC(N)=O)NC(=O)[C@H]([C@@H](C)O)NC(=O)[C@@H]2CCCN2C(=O)[C@@H]2CCCN2C1=O [3BP-3652, Hex-[Cys(tMeBn(DOTA-AET))-Pro-Pro-Thr-Gln-Phe-Cys]-NH2] | < 10 | < 10 | – | < 10 | – |
| CCCCCS(=O)(=O)N[C@H]1CSCc2cc(cc(CN3CCN(C(=O)CN4CCN(CC(=O)O)CCN(CC(=O)O)CCN(CC(=O)O)CC4)CC3)c2)CSC[C@@H](C(=O)N[C@@H](CC(=O)O)C(N)=O)NC(=O)[C@H](Cc2ccccc2)NC(=O)[C@H](CCC(N)=O)NC(=O)[C@H]([C@@H](C)O)NC(=O)[C@@H]2CCCN2C(=O)[C@@H]2CCCN2C1=O [3BP-3692, Pentyl-SO2-[Cys(tMeBn(DOTA-PP))-Pro-Pro-Thr-Gln-Phe-Cys]-Asp-NH2] (Pentanesulfonyl-CPPTQFCD-NH2; linker 1-7 via X13) | < 10 | < 10 | – | < 10 | – |
| CCCCCC(=O)N[C@H]1CSCc2cc(CSCCNC(=O)CN3CCN(CC(=O)O)CCN(CC(=O)O)CCN(CC(=O)O)CC3)cc(c2)CSC[C@@H](C(=O)O)NC(=O)[C@H](Cc2ccccc2)NC(=O)[C@H](CCC(N)=O)NC(=O)[C@H]([C@@H](C)O)NC(=O)[C@@H]2C[C@@H](O)CN2C(=O)[C@@H]2CCCN2C1=O [3BP-3679, Hex-[Cys(tMeBn(DOTA-AET))-Pro-Hyp-Thr-Gln-Phe-Cys]-OH] | < 10 | < 10 | – | < 10 | – |
| CCCCCC(=O)N[C@H]1CSCc2cccc(c2)CSC[C@@H](C(=O)N[C@@H](CC(=O)O)C(=O)NCCCOCCOCCOCCCNC(=O)CCC(=O)N[C@@H](CCCCNC(=O)CN2CCN(CC(=O)O)CCN(CC(=O)O)CCN(CC(=O)O)CC2)C(N)=O)NC(=O)[C@H](Cc2ccccc2)NC(=O)[C@H](CCC(=O)O)NC(=O)[C@H]([C@@H](C)O)NC(=O)[C@@H]2CCCN2C(=O)[C@@H]2CCCN2C1=O [3BP-3396, Hex-[Cys(3MeBn)-Pro-Pro-Thr-Glu-Phe-Cys]-Asp-Ttds-Lys(DOTA)-NH2] (Hexanoyl-CPPTEFCD-X17; linker 1-7 via mXylylene) | < 10 | < 10 | – | < 10 | – |
| CCCCCC(=O)N[C@H]1CSCc2cc(CSCCNC(=O)CN3CCN(CC(=O)O)CCN(CC(=O)O)CCN(CC(=O)O)CC3)cc(c2)CSC[C@@H](C(=O)NCCCC(=O)O)NC(=O)[C@H](Cc2ccccc2)NC(=O)[C@H](CCC(N)=O)NC(=O)[C@H]([C@@H](C)O)NC(=O)[C@@H]2CCCN2C(=O)[C@@H]2CCCN2C1=O [3BP-3657, Hex-[Cys(tMeBn(DOTA-AET))-Pro-Pro-Thr-Gln-Phe-Cys]-Gab-OH] | < 10 | < 10 | – | < 10 | – |
| CCCCC(=O)N[C@H]1CSCc2cc(CSCCNC(=O)CN3CCN(CC(=O)O)CCN(CC(=O)O)CCN(CC(=O)O)CC3)cc(c2)CSC[C@@H](C(=O)O)NC(=O)[C@H](Cc2ccccc2)NC(=O)[C@H](CCC(N)=O)NC(=O)[C@H]([C@@H](C)O)NC(=O)[C@@H]2CCCN2C(=O)[C@@H]2CCCN2C1=O [3BP-3910, Pent-[Cys(tMeBn(DOTA-AET))-Pro-Pro-Thr-Gln-Phe-Cys]-OH] | < 10 | < 10 | < 10 | – | A (Category A stands for pKD values >8.0) |
| CCCCNC(=O)N[C@H]1CSCc2cc(cc(CN3CCN(C(=O)CN4CCN(CC(=O)O)CCN(CC(=O)O)CCN(CC(=O)O)CC4)CC3)c2)CSC[C@@H](C(=O)O)NC(=O)[C@H](Cc2ccccc2)NC(=O)[C@H](CCC(N)=O)NC(=O)[C@H]([C@@H](C)O)NC(=O)[C@@H]2CCCN2C(=O)[C@@H]2CCCN2C1=O [3BP-4564, nBu-CAyl-[Cys(tMeBn(DOTA-PP))-Pro-Pro-Thr-Gln-Phe-Cys]-OH] | < 10 | < 10 | < 10 | – | – |
| CCCCOC(=O)N[C@H]1CSCc2cc(CSCCNC(=O)CN3CCN(CC(=O)O)CCN(CC(=O)O)CCN(CC(=O)O)CC3)cc(c2)CSC[C@@H](C(=O)O)NC(=O)[C@H](Cc2ccccc2)NC(=O)[C@H](CCC(N)=O)NC(=O)[C@H]([C@@H](C)O)NC(=O)[C@@H]2CCCN2C(=O)[C@@H]2CCCN2C1=O [3BP-3941, nBu-COyl-[Cys(tMeBn(DOTA-AET))-Pro-Pro-Thr-Gln-Phe-Cys]-OH] | < 10 | < 10 | < 10 | – | – |
| CC(C)CCC(=O)N[C@H]1CSCc2cc(CSCCNC(=O)CN3CCN(CC(=O)O)CCN(CC(=O)O)CCN(CC(=O)O)CC3)cc(c2)CSC[C@@H](C(=O)O)NC(=O)[C@H](Cc2ccccc2)NC(=O)[C@H](CCC(N)=O)NC(=O)[C@H]([C@@H](C)O)NC(=O)[C@@H]2CCCN2C(=O)[C@@H]2CCCN2C1=O [3BP-3907, iHex-[Cys(tMeBn(DOTA-AET))-Pro-Pro-Thr-Gln-Phe-Cys]-OH] | < 10 | < 10 | < 10 | – | A (Category A stands for pKD values >8.0) |
| CCCCNC(=O)N[C@H]1CSCc2cc(CSCCNC(=O)CN3CCN(CC(=O)O)CCN(CC(=O)O)CCN(CC(=O)O)CC3)cc(c2)CSC[C@@H](C(N)=O)NC(=O)[C@H](Cc2ccccc2)NC(=O)[C@H](CCC(N)=O)NC(=O)[C@H]([C@@H](C)O)NC(=O)[C@@H]2CCCN2C(=O)CN(C)C1=O [3BP-4621, nBu-CAyl-[Cys(tMeBn(DOTA-AET))-Nmg-Pro-Thr-Gln-Phe-Cys]-NH2] ({NHBu-CO}-C[Sar]PTQFC-NH2; linker 1-7 via TBMB(SCH2CH2NH-DOTA)) | < 10 | < 10 | < 10 | – | – |
